Read-outs that look alike come from different tables or passages of the source.
Experiments:
[1] = system: PC-3; assay: MTT assay on cancer cell line PC-3; type: cell-based, human; conditions: Homo sapiens
Protocol: (§1) Cell culture, growth conditions and treatments. […] Different molecules were dissolved in DMSO and were delivered to cell cultures in complete medium.

[2] = system: SHSY-5Y; assay: MTT assay on cancer cell line SHSY-5Y; type: cell-based, human; conditions: Homo sapiens, SH-SY5Y
Protocol: as §1

[3] = molecular target: CDK-9/Cyclin T1 (Homo sapiens, UniProt P50750); assay: CDK inhibition assay, CDK-9/Cyclin T1 against substrate peptide, 33P-ATP; type: biochemical; conditions: at 500 nM
Protocol: (50-1000 cpm/pmole) and incubated for 30 min at room temperature. Assays were stopped by addition of 5 µl of 0.5 M (3%) orthophosphoric acid and then harvested onto P81 Unifilter plates with a wash buffer of 50 mM orthophosphoric acid.

[4] = molecular target: CDK-2/cyclin A (Homo sapiens, UniProt P24941); assay: CDK inhibition assay, CDK-2/cyclin A against Histone HI, 33P-ATP; type: biochemical; conditions: at 500 nM
Outline: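 CDK-2/cyclin A (5-20 mU) phosphorylating Histone HI (1 mg/ml) in 50 mM Hepes pH 7.5, 100 mM NaCl, 10 mM Mg acetate, 0.02 mM [33P-γ-ATP], 30 min at room temperature. Stopped with orthophosphoric acid, captured on P81 filters for radiometric readout.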

[5] = system: HCT-116; assay: MTT assay on cancer cell line HCT-116; type: cell-based, human; conditions: Homo sapiens, at 10µM, Table 8, read-out: In vitro cell inhibition, % of inhibition, HCT-116
Protocol: as §1

[6] = system: MDA-MB435; assay: MTT assay on cancer cell line MDA-MB435; type: cell-based, Human; conditions: Homo sapiens, MDA-MB-435; MDA-MB435; at 10µM; Table 8; read-out: In vitro cell inhibition, % of inhibition, MDA-MB435
Protocol: as §1

[7] = system: MCF-7; assay: MTT assay on cancer cell line MCF-7; type: cell-based, Human; conditions: Homo sapiens
Protocol: as §1

[8] = Table 8, read-out: In vitro cell inhibition, % of inhibition, PC-3
[9] = read-out: inhibition against PC-3 cell lines
[10] = SHSY-5Y, Table 8, read-out: In vitro cell inhibition, % of inhibition, SHSY-5Y
[11] = read-out: inhibition against SHSY-5Y cell lines
[12] = read-out: inhibition against CDK9
[13] = read-out: inhibition against CDK2
[14] = MCF7, MCF-7, Table 8, read-out: In vitro cell inhibition, % of inhibition, MCF-7
[15] = MCF7, read-out: inhibition against MCF-7 cell lines
[16] = Table-7, read-out: In vitro CDK9 % of inhibition
[17] = Table-7, read-out: In vitro CDK2 % of inhibition

Sequence of CDK-9/Cyclin T1 (P50750 whole entry): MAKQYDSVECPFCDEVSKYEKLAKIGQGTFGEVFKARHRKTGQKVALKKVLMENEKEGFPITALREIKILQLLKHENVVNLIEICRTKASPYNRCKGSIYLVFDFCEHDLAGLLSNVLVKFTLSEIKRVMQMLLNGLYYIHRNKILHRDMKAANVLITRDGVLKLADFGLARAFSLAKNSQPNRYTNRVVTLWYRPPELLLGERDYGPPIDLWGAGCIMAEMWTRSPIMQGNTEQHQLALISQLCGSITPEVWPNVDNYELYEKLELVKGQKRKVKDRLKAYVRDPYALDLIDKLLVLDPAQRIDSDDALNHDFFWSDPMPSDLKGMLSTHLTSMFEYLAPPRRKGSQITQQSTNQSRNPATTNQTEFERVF
Sequence of CDK-9/Cyclin T1 (O60563 whole entry partner): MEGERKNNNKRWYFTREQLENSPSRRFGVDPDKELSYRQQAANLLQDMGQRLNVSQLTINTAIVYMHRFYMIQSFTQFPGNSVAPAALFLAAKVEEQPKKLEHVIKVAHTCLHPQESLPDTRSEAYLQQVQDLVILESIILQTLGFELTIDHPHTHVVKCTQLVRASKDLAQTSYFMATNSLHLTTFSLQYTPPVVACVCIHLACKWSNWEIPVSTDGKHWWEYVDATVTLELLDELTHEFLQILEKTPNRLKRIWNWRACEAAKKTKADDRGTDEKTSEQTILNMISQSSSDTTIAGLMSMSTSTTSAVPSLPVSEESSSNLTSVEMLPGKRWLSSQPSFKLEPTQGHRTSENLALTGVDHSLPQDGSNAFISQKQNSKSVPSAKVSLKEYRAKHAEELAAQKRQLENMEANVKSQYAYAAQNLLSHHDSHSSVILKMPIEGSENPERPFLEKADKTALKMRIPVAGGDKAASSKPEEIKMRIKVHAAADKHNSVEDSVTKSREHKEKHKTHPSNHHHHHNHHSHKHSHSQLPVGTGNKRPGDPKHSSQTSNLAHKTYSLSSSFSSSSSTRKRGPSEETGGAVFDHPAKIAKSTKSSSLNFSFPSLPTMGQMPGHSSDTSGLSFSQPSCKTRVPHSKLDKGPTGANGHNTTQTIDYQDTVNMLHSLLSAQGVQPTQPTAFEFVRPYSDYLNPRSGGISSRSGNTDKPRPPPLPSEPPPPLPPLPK

SMILES	inhibition at 0.5 µM ([3]; Table-6, read-out: In vitro CDK9 % of inhibition) [%]	inhibition at 0.5 µM [3, 12] [%]	inhibition at 0.5 µM ([4]; Table-6, read-out: In vitro CDK2 % of inhibition) [%]	inhibition at 0.5 µM [4, 13] [%]	inhibition at 0.5 µM [3, 16] [%]	inhibition at 0.5 µM [4, 17] [%]	inhibition at 10 µM [1, 8] [%]	inhibition at 10 µM [1, 9] [%]	inhibition at 10 µM [2, 10] [%]	inhibition at 10 µM [2, 11] [%]	inhibition at 10 µM [5] [%]	inhibition at 10 µM [6] [%]	inhibition at 10 µM [7, 14] [%]	inhibition at 10 µM [7, 15] [%]
Fc1ccc(-c2cnc3[nH]cc(-c4ccnc(NC5CCCCCC5)n4)c3c2)cc1 [1A42, N-cycloheptyl-4-(5-(4-fluorophenyl)-1H-pyrrolo[2,3-b]pyridin-3-yl)pyrimidin-2-amine]	> 50	> 50	> 50	> 50	–	–	> 50	> 50	> 70	> 70	> 50	> 70	< 50	< 50
COc1ccc(-c2cnc3[nH]cc(-c4ccnc(NC5CCCCCC5)n4)c3c2)cc1 [1A51, N-cycloheptyl-4-(5-(4-methoxyphenyl)-1H-pyrrolo[2,3-b]pyridin-3-yl)pyrimidin-2-amine]	–	> 70	–	> 70	> 70	> 70	< 50	–	> 50	–	> 50	< 50	> 70	> 70
c1cncc(-c2cnc3[nH]cc(-c4ccnc(NC5CCCCCC5)n4)c3c2)c1 [1A55, N-cycloheptyl-4-(5-(pyridin-3-yl)-1H-pyrrolo[2,3-b]pyridin-3-yl)pyrimidin-2-amine]	–	> 70	–	> 70	> 70	> 70	> 50	–	> 70	> 70	> 50	> 50	< 50	< 50

Continued, in another order:

inhibition at 0.5 µM ([3]; Table-6, read-out: In vitro CDK9 % of inhibition) [%]	inhibition at 0.5 µM [3, 12] [%]	inhibition at 0.5 µM ([4]; Table-6, read-out: In vitro CDK2 % of inhibition) [%]	inhibition at 0.5 µM [4, 13] [%]	inhibition at 0.5 µM [3, 16] [%]	inhibition at 0.5 µM [4, 17] [%]	SMILES	inhibition at 10 µM [1, 8] [%]	inhibition at 10 µM [1, 9] [%]	inhibition at 10 µM [2, 10] [%]	inhibition at 10 µM [2, 11] [%]	inhibition at 10 µM [5] [%]	inhibition at 10 µM [6] [%]	inhibition at 10 µM [7, 14] [%]	inhibition at 10 µM [7, 15] [%]
–	–	–	–	< 50	< 50	FC(F)(F)c1ccc(-c2cnc3[nH]cc(-c4ccnc(NCCc5ccccc5)n4)c3c2)cc1 [1B1, N-phenethyl-4-(5-(4-(trifluoromethyl)phenyl)-1H-pyrrolo[2,3-b]pyridin-3-yl)pyrimidin-2-amine]	> 70	–	> 70	> 70	> 50	< 50	> 50	> 50
–	> 50	–	> 50	> 50	> 50	Fc1ccc(-c2cnc3[nH]cc(-c4ccnc(NCCc5ccccc5)n4)c3c2)cc1 [1B2, 4-(5-(4-fluorophenyl)-1H-pyrrolo[2,3-b]pyridin-3-yl)-N-phenethylpyrimidin-2-amine]	< 50	–	> 70	> 70	> 50	> 50	> 50	–
–	–	–	–	> 50	> 50	Fc1cccc(-c2cnc3[nH]cc(-c4ccnc(NCCc5ccccc5)n4)c3c2)c1 [1B5, 4-(5-(3-fluorophenyl)-1H-pyrrolo[2,3-b]pyridin-3-yl)-N-phenethylpyrimidin-2-amine]	> 50	> 50	> 70	> 70	> 50	> 50	> 50	> 50
–	> 50	–	> 50	> 50	> 50	COc1ccc(-c2cnc3[nH]cc(-c4ccnc(NCCc5ccccc5)n4)c3c2)cc1 [1B11, 4-(5-(4-methoxyphenyl)-1H-pyrrolo[2,3-b]pyridin-3-yl)-N-phenethylpyrimidin-2-amine]	< 50	–	> 50	–	> 50	> 50	> 50	> 50
–	> 70	–	> 70	> 70	> 70	Clc1ccc(-c2cnc3[nH]cc(-c4ccnc(NCCc5ccccc5)n4)c3c2)cc1 [1B12, 4-(5-(4-chlorophenyl)-1H-pyrrolo[2,3-b]pyridin-3-yl)-N-phenethylpyrimidin-2-amine]	> 70	–	> 70	> 70	> 50	< 50	> 50	–
